Assay results as given in PubChem BioAssay (NCI).
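Cultured in 96-well plates, cells were exposed to test compound for 48 hours across five concentrations. Definition used: TGI = concentration required for complete inhibition of growth.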

Key:
Test in all cases: NCI-60 cell line screen, 48 h
[1] = system: ACHN renal
[2] = system: CAKI-1 renal
[3] = system: CCRF-CEM leukemia
[4] = system: HL-60(TB) leukemia
[5] = system: HOP-62 NSCLC
[6] = system: HT29 colon
[7] = system: M14 melanoma
[8] = system: MALME-3M melanoma
[9] = system: MDA-MB-435
[10] = system: OVCAR-3 ovarian
[11] = system: OVCAR-4 ovarian
[12] = system: SF-268 CNS
[13] = system: SK-MEL-2 melanoma
[14] = system: SK-MEL-28 melanoma
[15] = system: SK-MEL-5 melanoma
[16] = system: SK-OV-3 ovarian
[17] = system: SNB-19 CNS
[18] = system: U251 CNS
[19] = system: UACC-257 melanoma
[20] = system: UACC-62 melanoma

Compound	TGI [1] [µM]	TGI [2] [µM]	TGI [3] [µM]	TGI [4] [µM]	TGI [5] [µM]	TGI [6] [µM]	TGI [7] [µM]	TGI [8] [µM]	TGI [9] [µM]	TGI [10] [µM]	TGI [11] [µM]	TGI [12] [µM]	TGI [13] [µM]	TGI [14] [µM]	TGI [15] [µM]	TGI [16] [µM]	TGI [17] [µM]	TGI [18] [µM]	TGI [19] [µM]	TGI [20] [µM]
O=S(=O)(O)c1ccc2c(N=Nc3c(O)ccc4ccccc34)cccc2c1	> 100	> 100	> 100	> 100	> 100	> 100	> 100	> 100	> 100	> 100	> 100	> 100	> 100	> 100	> 100	> 100	> 100	> 100	> 100	> 100
CC1=NNC(=O)[C@H]2[C@H]1CCC1[C@@H]2CC[C@]2(C)[C@@H](O)CC[C@@H]12 (some centres undefined)	> 100	> 100	> 100	> 100	> 100	> 100	> 100	> 100	> 100	> 100	> 100	> 100	> 100	> 100	> 100	> 100	> 100	> 100	> 100	> 100
COc1ccc2c(C(=O)c3c(C)n(CCN4CCOCC4)c4ccccc34)cccc2c1	> 100	> 100	27.1	23.4	> 100	64	87.7	80.7	22.8	29.6	> 100	55.4	55.9	> 100	35.2	> 100	> 100	52.2	97.9	> 100
CCOC(=O)C(C)(Cc1ccc(O)cn1)NC(=O)c1ccccc1 (centres undefined)	> 100	> 100	> 100	> 100	> 100	> 100	> 100	> 100	> 100	> 100	> 100	> 100	> 100	> 100	> 100	> 100	> 100	> 100	> 100	> 100
COC(=O)c1ccccc1/C=C1\Cc2ccc3ccccc3c2C1C (centres undefined)	> 100	> 100	> 100	> 100			> 100	> 100	> 100	> 100	> 100	> 100	> 100	> 100	64.5		> 100	> 100	> 100	> 100
O=S(=O)(/N=C(\NO)Nc1ccc(Cl)cc1)c1cc(S(=O)(=O)c2ccccc2)cs1	42.3	46.7	43.5	7.19	33.5	47	29.2	28.5	29.9	31.1	57.3	37	45.9	41.2	21.9		42.6	30.6	39	43.1
CC(=O)O[C@H]1C[C@H]2[C@@H]([C@H](OC(C)=O)C[C@@H]3CC4(CC[C@@]32C)OOC2(CCCCC2)OO4)[C@@H]2CC[C@H]([C@H](C)CCC(=O)O)[C@@]12C	20.3	25.3	15.5	15.1	5.93	25.3	26.9	34.3	18.9	37.2	9.38	26.8	26.5	24	22.6	26.9	25.4	17.7	25	
CC(=O)Nc1sccc1S(=O)(=O)c1ccc(Cl)cc1	> 100	> 100	> 100	> 100		> 100	> 100	> 100	> 100	> 100	> 100	> 100	> 100	> 100	> 100	> 100	> 100	> 100	> 100	> 100
O=C(O)c1ccccc1CC(Cc1ccccc1)C(=O)O (centres undefined)	> 100	> 100	> 100	> 100	> 100	> 100	> 100	> 100	> 100	> 100	> 100	> 100	> 100	> 100	> 100	> 100	> 100	> 100	> 100	
O=C1c2ccccc2/C=C\C(c2ccccc2)=N/N1c1ccccc1Cl	> 100	54.5	> 100	54.8	92.8	37	51.2	71.4	16.8	> 100	97.2	> 100	> 100	> 100	26.3		> 100	63.5	90.5	
CCOC(=O)C1=C(C)N(CC(C)C)C2(O)C(OC)CC(=O)C3C(=O)N(c4ccccc4)C(=O)C132 (centres undefined)	72	98.7	> 100	69.2	> 100	57.1	> 100	96.7	> 100	> 100	> 100	> 100	51.1	70.1	43.9		> 100	> 100	> 100	47.6
COC(=O)[C@]1(C)[C@H]2C[C@H]3O[C@H]4[C@H](O)[C@@H](O)OC(CC(O)C(C5=CC(=O)OC5)C(C5=CC(=O)OC5)C(O)CC56CCCCC7[C@@H](C)[C@H](C[C@H]8[C@](C)(C(=O)OC)[C@H](O)CC[C@]78C)O[C@H]([C@@H](O)[C@H](O)O5)[C@H]6O)(CCCCC([C@@H]3C)[C@]2(C)CC[C@@H]1O)[C@H]4O (some centres undefined)		0.849	0.333	0.348	0.64	0.825	1.16	0.407	1.1	1.05	0.373	0.212	0.643	10.4	0.129	0.735	1.12	1.09	1.01	0.779
